Results: patent publication US10760110B2, “Antibiotic testing and screening system” (priority 2017, dated 2020)
Where two headings read alike, the source gives them in different places.

Columns and labels:
[1] = system: A. baumannii KW1 strains with β-lactamase plasmids; assay: Etest MIC of β-lactams, extended-spectrum β-lactamase, AmpC β-lactamase or carbapenemase (Table 18); assay type: cell-based, Acinetobacter baumannii; settings: production of each carbapenemase tested
Description: DNA fragments of the resistance genes along with their flanking regions were amplified from clinical plasmids via PCR with specific primer pairs. The resulting PCR fragments were digested and then cloned into the plasmid pYMAb5 or pYMAb5Tc. The resulting plasmids were then transformed into A. baumannii KW1 via electroporation.
(§1) The MICs of antibiotics were determined using the Etest (Biodisk AB, Sweden) according to the manufacturer's instructions. The MICs from the Etest, which fall between standard two-fold dilutions, were rounded up to the next highest two-fold value. The MICs of ceftazidime and cefotaxime against K. pneumoniae NVT1001 harbouring the pACYC177 plasmid with blaOXA-48 were further determined using a broth microdilution test according to the recommendations of the CLSI,^25 and the results were interpreted according to the breakpoints established by the CLSI in 2017.^25 Meanwhile, due to the lack of CLSI breakpoints in 2016 and 2017, the results for cephalothin were interpreted according to the breakpoints established by the CLSI in 2015,^26 and the results for moxifloxacin were interpreted according to the breakpoints established by the EUCAST in 2017.^27

[2] = system: K. pneumoniae NVT1001 strains with QnrB, QnrS or AAC(6′)-Ib-cr plasmids; assay: Etest MIC of quinolones, GyrA/ParC mutations, ΔramR and/or QnrB, QnrS or AAC(6′)-Ib-cr (Table 12); assay type: cell-based; settings: Klebsiella pneumoniae
Description: DNA fragments of the resistance genes along with their flanking regions were amplified from clinical plasmids via PCR with specific primer pairs. The resulting PCR fragments were digested and then cloned into the plasmid pACYC177 or pACYC184. The resulting plasmids were then transformed into K. pneumoniae strain NVT1001 via electroporation. The recombinant bacteria were plated onto LB agar plates containing kanamycin (50 mg/L) or chloramphenicol (50 mg/L), and the presence of the cloned gene was confirmed via PCR and DNA sequencing.
as §1

[3] = system: K. pneumoniae NVT1001 gyrA/parC and gyrA/parC/ramR mutants and revertants; assay: Etest MIC of quinolones, gyrA/parC and gyrA/parC/ramR mutants and their revertants (Table 11); assay type: cell-based; settings: Klebsiella pneumoniae
Description: The allelic-exchange method was used to restore the wild-type gene in the K. pneumoniae NVT1001 mutants with constructed chromosome-mediated resistance mechanisms, as described by Tsai et al.^19 Briefly, a DNA fragment of the entire wild-type gene sequence along with flanking regions was amplified from K. pneumoniae NVT1001 using PCR with specific primers. The resulting PCR fragment was digested and then cloned into pUT-KB. For homologous recombination, this plasmid was transformed into E. coli S17-1 λpir^23 via electroporation and mobilized into the K. pneumoniae NVT1001 mutant via conjugation. […] After incubation in 20 mL BHI broth for 6 hours at 37° C. in the absence of kanamycin, the fully grown cultures were spread onto LB agar plates supplemented with 10% sucrose. After the double crossover occurred, the sucrose-resistant and kanamycin-susceptible colonies were selected, and the restoration of the wild-type gene was confirmed via DNA sequencing.
as §1

[4] = system: A. baumannii KW1 and its GyrA/ParC mutants; assay: Etest MIC of quinolones, GyrA and/or ParC mutations (Table 17); assay type: cell-based; settings: Acinetobacter baumannii
Description: DNA fragments of the entire adeR, adeS, gyrA and parC along with their flanking regions were amplified from A. baumannii KW1 using PCR with specific primer pairs and then cloned into plasmid pUT-KB. The QuikChange site-directed mutagenesis kit (Stratagene) was used to generate mutations in the adeR, adeS, gyrA and parC genes in the plasmids using the methods described by the manufacturer. For homologous recombination, plasmids containing mutations in the adeR, adeS, gyrA or parC gene were transformed into E. coli S17-1 λpir^23 via electroporation and mobilized into A. baumannii KW1 via conjugation. Single-crossover strains were selected from Luria-Bertani (LB) plates supplemented with cefotaxime (1 μg/ml) and kanamycin ([…]), as the growth of non-A. baumannii contaminants is suppressed by cefotaxime (1 μg/ml). The kanamycin-resistant transconjugants were selected and the insertion of plasmids was verified via PCR. After incubation in 20 ml brain heart infusion (BHI) broth for 6 hours in the absence of kanamycin at 37° C., the fully grown cultures were spread onto LB plates supplemented with 10% sucrose. After the double crossover occurred, the sucrose-resistant and kanamycin-susceptible colonies were selected, and the gene mutations were confirmed via PCR.
as §1

C[C@H]1[C@H](NC(=O)/C(=N\OC(C)(C)C(=O)O)c2csc(N)n2)C(=O)N1S(=O)(=O)O [Aztreonam]
effects on the MIC [1]: no increase effects

CCn1cc(C(=O)O)c(=O)c2ccc(C)nc21 [Nalidixic acid, nalidixic acid]
MIC ([2]; AAC(6′)-Ib-cr on pACYC177, S83I mutant): > 256 mg/L
MIC ([2]; AAC(6′)-Ib-cr on pACYC177, S83I/D87N/S80I mutant): > 256 mg/L
MIC ([2]; AAC(6′)-Ib-cr on pACYC177, S83I/S80I mutant): > 256 mg/L
MIC ([2]; AAC(6′)-Ib-cr on pACYC177, WT (NVT1001), read-out: MIC): 4 mg/L
MIC ([2]; AAC(6′)-Ib-cr on pACYC177, ΔramR mutant): 64 mg/L
MIC ([2]; AAC(6′)-Ib-cr on pACYC177, ΔramR/S83I mutant): > 256 mg/L
MIC ([2]; AAC(6′)-Ib-cr on pACYC177, ΔramR/S83I/D87N/S80I mutant): > 256 mg/L
MIC ([2]; AAC(6′)-Ib-cr on pACYC177, ΔramR/S83I/S80I mutant): > 256 mg/L
MIC ([2]; QnrB on pACYC177, S83I mutant): > 256 mg/L
MIC ([2]; QnrB on pACYC177, S83I/D87N/S80I mutant): > 256 mg/L
MIC ([2]; QnrB on pACYC177, S83I/S80I mutant): > 256 mg/L
MIC ([2]; QnrB on pACYC177, WT (NVT1001), read-out: MIC): 32 mg/L
MIC ([2]; QnrB on pACYC177, ΔramR mutant): 256 mg/L
MIC ([2]; QnrB on pACYC177, ΔramR/S83I mutant): > 256 mg/L
MIC ([2]; QnrB on pACYC177, ΔramR/S83I/D87N/S80I mutant): > 256 mg/L
MIC ([2]; QnrB on pACYC177, ΔramR/S83I/S80I mutant): > 256 mg/L
MIC ([2]; QnrS on pACYC177, S83I mutant): > 256 mg/L
MIC ([2]; QnrS on pACYC177, S83I/D87N/S80I mutant): > 256 mg/L
MIC ([2]; QnrS on pACYC177, S83I/S80I mutant): > 256 mg/L
MIC ([2]; QnrS on pACYC177, WT (NVT1001), read-out: MIC): 16 mg/L
MIC ([2]; QnrS on pACYC177, ΔramR mutant): 64 mg/L
MIC ([2]; QnrS on pACYC177, ΔramR/S83I mutant): > 256 mg/L
MIC ([2]; QnrS on pACYC177, ΔramR/S83I/D87N/S80I mutant): > 256 mg/L
MIC ([2]; QnrS on pACYC177, ΔramR/S83I/S80I mutant): > 256 mg/L
MIC ([2]; no supplemental plasmid, S83I mutant): > 256 mg/L
MIC ([2]; no supplemental plasmid, S83I/D87N/S80I mutant): > 256 mg/L
MIC ([2]; no supplemental plasmid, S83I/S80I mutant): > 256 mg/L
MIC ([2]; no supplemental plasmid, WT (NVT1001), read-out: MIC): 4 mg/L
MIC ([2]; no supplemental plasmid, ΔramR mutant): 32 mg/L
MIC ([2]; no supplemental plasmid, ΔramR/S83I mutant): > 256 mg/L
MIC ([2]; no supplemental plasmid, ΔramR/S83I/D87N/S80I mutant): > 256 mg/L
MIC ([2]; no supplemental plasmid, ΔramR/S83I/S80I mutant): > 256 mg/L
MIC ([3]; S83F/D87N/S80I mutant): > 256 mg/L
MIC ([3]; S83F/D87N/S80I::F83S/N87D/I80S revertant, read-out: MIC): 4 mg/L
MIC ([3]; S83F/D87N/S80I::I80S revertant, read-out: MIC): > 256 mg/L
MIC ([3]; S83F/D87N/S80I::N87D revertant, read-out: MIC): > 256 mg/L
MIC ([3]; S83F/D87N/S80I::N87D/I80S revertant, read-out: MIC): > 256 mg/L
MIC ([3]; S83I/D87N/S80I mutant): > 256 mg/L
MIC ([3]; S83I/D87N/S80I::I80S revertant, read-out: MIC): > 256 mg/L
MIC ([3]; S83I/D87N/S80I::I83S/N87D/I80S revertant, read-out: MIC): 4 mg/L
MIC ([3]; S83I/D87N/S80I::N87D revertant, read-out: MIC): > 256 mg/L
MIC ([3]; S83I/D87N/S80I::N87D/I80S revertant, read-out: MIC): > 256 mg/L
MIC ([3]; S83L/D87N/S80I mutant): > 256 mg/L
MIC ([3]; S83L/D87N/S80I::I80S revertant, read-out: MIC): > 256 mg/L
MIC ([3]; S83L/D87N/S80I::L83S/N87D/I80S revertant, read-out: MIC): 4 mg/L
MIC ([3]; S83L/D87N/S80I::N87D revertant, read-out: MIC): > 256 mg/L
MIC ([3]; S83L/D87N/S80I::N87D/I80S revertant, read-out: MIC): > 256 mg/L
MIC ([3]; S83Y/D87N/S80I mutant): > 256 mg/L
MIC ([3]; S83Y/D87N/S80I::I80S revertant, read-out: MIC): > 256 mg/L
MIC ([3]; S83Y/D87N/S80I::N87D revertant, read-out: MIC): > 256 mg/L
MIC ([3]; S83Y/D87N/S80I::N87D/I80S revertant, read-out: MIC): > 256 mg/L
MIC ([3]; S83Y/D87N/S80I::Y83S/N87D/I80S revertant, read-out: MIC): 8 mg/L
MIC ([3]; ΔramR/S83I/D87N/S80I mutant): > 256 mg/L
MIC ([3]; ΔramR/S83I/D87N/S80I:: ramR/I83S revertant): > 256 mg/L
MIC ([3]; ΔramR/S83I/D87N/S80I:: ramR/I83S/I80S revertant): > 256 mg/L
MIC ([3]; ΔramR/S83I/D87N/S80I:: ramR/I83S/N87D revertant): 8 mg/L
MIC ([3]; ΔramR/S83I/D87N/S80I::I83S/N87D/I80S revertant): 32 mg/L
MIC ([3]; ΔramR/S83I/D87N/S80I::N87D revertant): > 256 mg/L
MIC ([3]; ΔramR/S83I/D87N/S80I::N87D/I80S revertant): > 256 mg/L
MIC ([3]; ΔramR/S83I/D87N/S80I::ramR/I83S/N87D/I80S): 8 mg/L
MIC ([4]; E84K mutant): 12 mg/L
MIC ([4]; G78C mutant): 12 mg/L
MIC ([4]; KW1, read-out: MIC): 12 mg/L
MIC ([4]; S80L mutant): 12 mg/L
MIC ([4]; S80W mutant): 12 mg/L
MIC ([4]; S80Y mutant): 12 mg/L
MIC ([4]; S83L mutant): > 256 mg/L
MIC ([4]; S83L/E84K mutant): > 256 mg/L
MIC ([4]; S83L/G78C mutant): > 256 mg/L
MIC ([4]; S83L/S80L mutant): > 256 mg/L
MIC ([4]; S83L/S80W mutant): > 256 mg/L
MIC ([4]; S83L/S80Y mutant): > 256 mg/L
